Results published in patent US20220313656A1, “NEW CLASS OF ANTIBIOTICS HAVING LOW MIC-VALUES TOWARDS DIFFERENT STRAINS OF BACTERIA” (priority 2019, published 2022).

Tests used:
[1] = tested on: E. faecalis; test: MIC, serial dilution method (CLSI); type: cell-based, Enterococcus faecalis; settings: Enterococcus faecalis, 24 h; read-out: MIC
Method in brief: (§1)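 Each determination was run twice. Bacteria, diluted 1:100 in Müller Hinton broth, were exposed to compound for 24 hours at 37° C without agitation, and the lowest concentration free of visible growth was recorded.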

[2] = tested on: S. aureus USA300; test: MIC, serial dilution method (CLSI); type: cell-based, Staphylococcus aureus; settings: Staphylococcus aureus, USA300, 24 h; read-out: MIC
Method in brief: as §1

[3] = tested on: S. aureus CC398; test: MIC, serial dilution method (CLSI); type: cell-based, Staphylococcus aureus; settings: Staphylococcus aureus, MRSA, 24 h; read-out: MIC
Method in brief: as §1

[4] = tested on: Staphylococus pseudintermedius; test: MIC, serial dilution method (CLSI); type: cell-based, Staphylococcus pseudintermedius; settings: Staphylococcus pseudintermedius, 24 h; read-out: MIC
Method in brief: as §1

[5] = tested on: E. coli APEC O2; test: MIC, serial dilution method (CLSI); type: cell-based, Escherichia coli; settings: Escherichia coli, APECO2, 24 h; read-out: MIC
Method in brief: as §1

[6] = tested on: Listeria monocytogenes; test: MIC, serial dilution method (CLSI); type: cell-based; settings: 24 h, read-out: MIC
Method in brief: as §1

[7] = tested on: Salmonella enteritidis; test: MIC, serial dilution method (CLSI); type: cell-based; settings: Salmonella enterica, ENTERITIDIS, 24 h; read-out: MIC
Method in brief: as §1

[8] = tested on: Escherichia coli ESBL1; test: MIC, serial dilution method (CLSI); further: values in mg/L; type: cell-based; settings: E. coli ESBL1, Tetracycline resistant; duplicates a/b
Method in brief: as §1

[9] = tested on: Escherichia coli E5; test: MIC, serial dilution method (CLSI); further: values in mg/L; type: cell-based; settings: E. coli E5, ESBL; duplicates a/b
Method in brief: as §1

[10] = tested on: Escherichia coli ESBL28; test: MIC, serial dilution method (CLSI); further: values in mg/L; type: cell-based; settings: E. coli ESBL28, Tetracycline resistant; duplicates a/b
Method in brief: as §1

[11] = tested on: Escherichia coli E38; test: MIC, serial dilution method (CLSI); further: values in mg/L; type: cell-based; settings: E. coli E38, ESBL; duplicates a/b
Method in brief: as §1

[12] = tested on: Streptococcus equi; test: MIC, serial dilution method (CLSI); type: cell-based; settings: 24 h, read-out: MIC
Method in brief: as §1

[13] = tested on: Escherichia coli ESBL37; test: MIC, serial dilution method (CLSI); further: values in mg/L; type: cell-based; settings: E. coli ESBL37, Tetracycline resistant; duplicates a/b
Method in brief: as §1

[14] = tested on: Escherichia coli E4; test: MIC, serial dilution method (CLSI); further: values in mg/L; type: cell-based; settings: E. coli E4, ESBL; duplicates a/b
Method in brief: as §1

[15] = tested on: Escherichia coli E6; test: MIC, serial dilution method (CLSI); further: values in mg/L; type: cell-based; settings: E. coli E6, ESBL; duplicates a/b
Method in brief: as §1

[16] = tested on: Escherichia coli ESBL46; test: MIC, serial dilution method (CLSI); further: values in mg/L; type: cell-based; settings: E. coli ESBL46, Tetracycline resistant; duplicates a/b
Method in brief: as §1

[17] = tested on: Escherichia coli E24; test: MIC, serial dilution method (CLSI); further: values in mg/L; type: cell-based; settings: E. coli E24, ESBL; duplicates a/b
Method in brief: as §1

[18] = tested on: Escherichia coli ESBL19; test: MIC, serial dilution method (CLSI); further: values in mg/L; type: cell-based; settings: E. coli ESBL19, Tetracycline resistant; duplicates a/b
Method in brief: as §1

[19] = tested on: Escherichia coli ESBL10; test: MIC, serial dilution method (CLSI); further: values in mg/L; type: cell-based; settings: E. coli ESBL10, Tetracycline resistant; duplicates a/b
Method in brief: as §1

[20] = tested on: Bacillus cereus; test: MIC, serial dilution method (CLSI); type: cell-based; settings: 24 h, read-out: MIC
Method in brief: as §1

[21] = tested on: E. faecium; test: MIC, serial dilution method (CLSI); type: cell-based, Enterococcus faecium; settings: Enterococcus faecium, 24 h; read-out: MIC
Method in brief: as §1

[22] = tested on: Escherichia coli E2; test: MIC, serial dilution method (CLSI); further: values in mg/L; type: cell-based; settings: E. coli E2, ESBL; duplicates a/b
Description: (§2) The MIC for each compound for each bacteria strain was determined by the serial dilution method following the CLSI guidelines (CLSI Clinical and Laboratory Standards Institute: Performance Standards for Antimicrobial Susceptibility Testing: […] M100-S25. Wayne, Pa., USA; 2015.) All compounds were diluted in autoclaved H2O and stored at 4° C. […] Bacterial inoculums were prepared by inoculating 9 ml of H2O with bacterial colonies from agar plate (Oxoid, Roskilde Denmark) supplemented with bovine blood to a final yield a final density of 10^8 colony forming unit (CFU)/mL using a Sensititre™ Nephelometer (Thermo Scientific, Roskilde, Denmark). These inoculums were each in diluted 1:100 in Müller Hinton (MH) broth (Sigma, Copenhagen, Denmark). From the diluted inoculums 100 μl was transferred to each well in a 96-well plate and mixed with the compound to be MIC determined. The plate was incubated for 24 hours at 37° C. (without shaking). The MIC value was determined as the lowest concentration in which no bacterial growth could be visually detected. All MIC determinations were done in duplicates. […] Since all derivatives are new, no control strains (with reference MIC values) were available.

[23] = Mutagenicity; settings: data not shown
Description: The compound S43 was also assessed for mutagenicity.

[24] = tested on: Staphylococcus epidermidis; test: MIC and MBC determination; type: cell-based; settings: Multiresistant clinical isolate
Description: (§3) MBC-value defines the antibiotic activities by the lowest concentration of the compound needed to kill at least 99.9% of the bacteria, also known as minimum bactericidal concentration (MBC) value.
as §2

[25] = tested on: Campylobacter jejuni; test: MIC and MBC determination; type: cell-based; settings: Clinical isolate
Description: as §3, §2

[26] = tested on: Cutibacterium acnes; test: MIC and MBC determination; type: cell-based; settings: Multiresistant clinical isolate
Description: as §3, §2

[27] = Maximum Tolerated Dose (MTD) in mice; type: in vivo; settings: for tolerated dose: mice, observed 4-6 hrs
Description: This experiment is conducted to assess in vivo toxicity of the compounds. […] The study was performed at Statens Serum Institute. The Maximum Tolerated Dose (MTD) was investigated after intravenous (iv), intraperitonalt (ip) and peroral (po) dosing ranging from 5 mg/kg to 100 mg/kg.

[28] = tested on: Staphylococcus aureus MRSA 43484; test: Murine superficial MRSA skin infection model, topical treatment; type: in vivo; settings: for reduction of the bacterial loads compared to vehicle treatment: topical twice daily for 3 days, day 4, Balb/C mice; for efficacy in the MRSA skin infection model: formulations at 1% and 2%, compared to vehicle
Description: This experiment is conducted to assess the effect of topical treatment of the compounds against MRSA. Compound S43 was evaluated for efficacy against Staphylococcus aureus MRSA 43484 in an murine skin infection model.
Treatment was performed twice daily for 3 days and sampling of skin biopsies was performed the day after last treatment. Treatment with Fucidic acid was included as a positive control and treatment with vehicle was included as a negative control.
48 Balb/C female mice—18-22 g—Taconic, Denmark, Staphylococcus aureus MRSA43484, Test compound A at 1 and 2% formulations, Test compound B at 2% formulation, Fucidin, 0.9% saline (sterile, SSI), 0.9% saline/Triton-x (sterile, SSI), Sterile water (SSI), 5% Horse Blood Agar plates (SSI), MRSA Brilliance agar plates, Nurofen® Junior (20 mg/ml, Novartis), Zoletil mix/Torbugesic (SSI/QC-BIO), Dermal curette—Miltex 335710.
Approximately 1 hour before inoculation, mice were treated orally with 45 μl nurofen (20 mg ibuprofen/ml corresponding to approximately […]) as pain relief. The mice were anaesthetized with 0.15 ml s.c. of Zoletil mix. The fur was removed from a 2×3-cm area on the back of each mouse by use of an electric shaver. Next, a razor was used to remove all the hair and hereafter the outer most layer of the skin was scraped off with a dermal curette to obtain a 1 cm^2 superficial skin lesion. 10 μl inoculum containing approximately 10^7 CFU was spread on the lesion. After the applied inoculum had dried, the mouse was placed in the cage and kept in a warming cabinet until fully awake.
Topical treatment of was initiated the day after inoculation, Day 1. Mice were treated twice daily (9 a.m and 3 p.m.) for three days. A volume of 50 μl was spread on the inoculated skin area.
Colony counts in the skin lesions were determined on day 1 (start of treatment) and day 4 (the day after completed treatment). The mice were sacrificed day 1 and 4 according to Table 1. The affected skin area was removed by a pair of scissors and tweezers, and collected in a tube for Dispomixer with 1 ml saline. The skin sample was homogenized in a Dispomixer. Each sample was serial diluted in saline/Triton-x and 20-μl spots were applied on MRSA Brillince agar plates. All agar plates were incubated 20-48 hrs at 35° C.

CCCCCCCCCCCC[N+](C)(C)CCCN1c2ccccc2Sc2ccc(Cl)cc21.[Br-] [Compound S7, N-(3-(2-chloro-10H-phenothiazin-10-yl)propyl)-N,N-dimethyldodecan-1-aminium bromide]
MIC [1]: 0.5 µg/mL
MIC [2]: 0.5 µg/mL
MIC [3]: 0.25 µg/mL
MIC [4]: 0.25 µg/mL
MIC [5]: 4 µg/mL
MIC [6]: 0.25 µg/mL
MIC [7]: 16 µg/mL
MIC [8]: 4/4
MIC [9]: 4/4
MIC [10]: 4/4
MIC [11]: 4/4
MIC [12]: 1 µg/mL
MIC [13]: 4/4
MIC [14]: 4/4
MIC [15]: 4/4
MIC [16]: 4/8
MIC [17]: 4/4
MIC [18]: 4/4
MIC [19]: 8/8
MIC [20]: 0.25 µg/mL
MIC [21]: 0.25 µg/mL
MIC [22]: 8/4

CC(C)=CCCC(C)CC[N+](C)(C)CCCN1c2ccccc2Sc2ccccc21.Cc1ccc(S(=O)(=O)[O-])cc1 (stereo not shown) [Compound S43, N-(3-(10H-phenothiazin-10-yl)propyl)-N,N,3,7-tetramethyloct-6-en-1-aminium 4-methylbenzenesulfonate]
mutagenic potential [23]: did not show indications of mutagenic potential
MBC [24]: 2 µg/mL
MIC [24]: 2 µg/mL
MBC [25]: 1 µg/mL
MIC [25]: 1 µg/mL
MBC [26]: 1 µg/mL
MIC [26]: 1 µg/mL
MIC [2]: 2 µg/mL
tolerability ([27]; mice dosed twice po with 100 mg/kg): no signs of discomfort
tolerated dose ([27]; ip dosing): up to 10 mg/kg
tolerated dose ([27]; iv dosing): up to 10 mg/kg
reduction of the bacterial loads compared to vehicle treatment ([28]; 1% formulation): 3.0 log10 CFU
reduction of the bacterial loads compared to vehicle treatment ([28]; 2% formulation): 3.7 log10 CFU
efficacy in the MRSA skin infection model ([28]; 4-methylbenzenesulfonate): significant reduction of the bacterial loads
efficacy in the MRSA skin infection model ([28]; listed as 43, 4-methylbenzenesulfonate): highly effective
